Assay [1] concerns cell type (e.g., HeLa cells). Nature of the assay: Cellular uptake efficiency of cyclic CPPs. The class given is cell-based. Conditions: relative to cFΦR4 (290-1F, 100%). The method, then: In particular embodiments, uptake efficiency is determined by comparing (i) the amount of a cyclic cell-penetrating peptide of the invention internalized by a cell type (e.g., HeLa cells) to (ii) the amount of c(FΦRRRRQ) (290-1F) internalized by the same cell type. To measure cellular uptake efficiency, the cell type may be incubated in the presence of a cell-penetrating peptide of the invention for a specified period of time (e.g., 30 minutes, 1 hour, 2 hours, etc.) after which the amount of the cell-penetrating peptide internalized by the cell is quantified. Separately, the same concentration of c(FΦRRRRQ) (290-1F) is incubated in the presence of the cell type over the same period of time, and the amount of the second peptide internalized by the cell is quantified. Quantification can be achieved by fluorescently labeling the cell-penetrating peptide (e.g., with a FTIC dye) and measuring the fluorescence intensity using techniques well-known in the art.
(§1) Also discussed herein are the CPP sequences in Table 16. All uptake/delivery efficiencies are in Table 17 are relative to that of cFΦR4 (290-1F, 100%). SUV1 are small unilamellar vesicles that mimic the neutral outer membrane of mammalian cells [45% phosphatidylcholine (PC), 20% phosphatidylethanolamine (PE), 20% sphingomyelin (SM), and 15% cholesterol (CHO)]. SUV2 are small unilamellar vesicles that mimic the negatively charged endosomal membrane of mammalian cells [50% PC, 20% PE, 10% phosphatidylinositol (PI), and 20% bis(monoacylglycerol)phosphate].

Assay [2] relates to SUV1 (vesicles that mimic the neutral outer membrane of mammalian cells). Nature of the assay: Fluorescence polarization membrane binding, SUV1.
Excerpt: as §1
(§2) Measurements were carried out fluorescence polarization using FITC-labeled cyclic peptides against increasing concentrations of vesicles. Experiments were performed at pH 7.4 and 5.5 (pH inside late endosomes).

In assay [3] the test system is SUV2 (vesicles that mimic the negatively charged endosomal membrane of mammalian cells). Nature of the assay: Fluorescence polarization membrane binding, SUV2.
Excerpt: as §1, §2
(Polarisation of emitted light reports the rotation of a fluorescent probe.)

[4] abbreviates: pH 7.4, read-out: Membrane Binding KD (mM) SUV1 pH 7.4.
Where [5] appears, read: pH 5.5, read-out: Membrane Binding KD (mM) SUV2 pH 5.5.
[6] abbreviates: pH 7.4, read-out: Membrane Binding KD (mM) SUV2 pH 7.4.

Like-named read-outs stand apart in the source and are kept apart here. Non-standard residues stand in square brackets, D forms with d. Residues, ends and D or L forms follow the SMILES beside them. *: point of attachment. Lys(5-FITC)NH2 = NC(=O)[C@H](CCCCNC(=S)Nc1ccc2c(c1)C(=O)OC21c2ccc(O)cc2Oc2cc(O)ccc21)N*; 2Nal = N[C@@H](Cc1ccc2ccccc2c1)C(=O)O; d2Nal = N[C@H](Cc1ccc2ccccc2c1)C(=O)O

`N=C(N)NCCC[C@@H]1NC(=O)[C@H](CCCNC(=N)N)NC(=O)[C@H](CCCNC(=N)N)NC(=O)[C@H](Cc2ccccc2)NC(=O)[C@H](CCC(=O)N[C@@H](CCCCNC(=S)Nc2ccc3c(c2)C(=O)OC32c3ccc(O)cc3Oc3cc(O)ccc32)C(N)=O)NC(=O)[C@H](Cc2ccc3ccccc3c2)NC(=O)[C@H](CCCNC(=N)N)NC1=O` [Peptide 290-4F, c(FRRRRΦQ)] (cyclo(FRRRR[2Nal]E(Lys(5-FITC)NH2))): the “Uptake Efficiency (%)” value in assay [1] was found to be 59%. Further, the Kd (commonly the free concentration of one partner at which half of the binding sites on the other are occupied at equilibrium, for simple one-to-one binding) came out at 7.24 mM in assay [2] (setting [4]), 0.11 mM in assay [3] (setting [5]) and 0.54 mM in assay [3] (setting [6]).

Consider `N=C(N)NCCC[C@@H]1NC(=O)[C@H](CCC(=O)N[C@@H](CCCCNC(=S)Nc2ccc3c(c2)C(=O)OC32c3ccc(O)cc3Oc3cc(O)ccc32)C(N)=O)NC(=O)[C@H](CCCNC(=N)N)NC(=O)[C@H](Cc2ccc3ccccc3c2)NC(=O)[C@H](CCCNC(=N)N)NC(=O)[C@H](Cc2ccccc2)NC(=O)[C@H](CCCNC(=N)N)NC1=O` [Peptide 290-3F, c(RRFRΦRQ)] (cyclo(RRFR[2Nal]RE(Lys(5-FITC)NH2))), for which, in assay [1], the “Uptake Efficiency (%)” value is reported as 163%. Besides, the Kd stood at 0.22 mM in assay [2] (setting [4]), 0.26 mM in assay [3] (setting [5]) and 0.4 mM in assay [3] (setting [6]).

On to `N=C(N)NCCC[C@@H]1NC(=O)[C@@H](CCCNC(=N)N)NC(=O)[C@H](CCCNC(=N)N)NC(=O)[C@@H](CCCNC(=N)N)NC(=O)[C@@H](Cc2ccc3ccccc3c2)NC(=O)[C@H](Cc2ccccc2)NC(=O)[C@H](CCC(=O)N[C@@H](CCCCNC(=S)Nc2ccc3c(c2)C(=O)OC32c3ccc(O)cc3Oc3cc(O)ccc32)C(N)=O)NC1=O` [Peptide 290-13F, c(FϕrRrRQ)] (cyclo(F[d2Nal][dR]R[dR]RE(Lys(5-FITC)NH2))), for which the “Uptake Efficiency (%)” value in assay [1] is listed as 200%. The Kd in assay [2] (setting [4]) was found to be 0.68 mM; in assay [3] (setting [5]), 0.04 mM; in assay [3] (setting [6]), 0.28 mM.

As for `N=C(N)NCCC[C@@H]1NC(=O)[C@H](CCC(=O)N[C@@H](CCCCNC(=S)Nc2ccc3c(c2)C(=O)OC32c3ccc(O)cc3Oc3cc(O)ccc32)C(N)=O)NC(=O)[C@H](CCCNC(=N)N)NC(=O)[C@H](Cc2ccc3ccccc3c2)NC(=O)[C@H](CCCNC(=N)N)NC(=O)[C@H](Cc2ccccc2)NC(=O)[C@H](CCCNC(=N)N)NC(=O)[C@H](Cc2ccccc2)NC1=O` [Peptide 290-8F] (cyclo(RFRFR[2Nal]RE(Lys(5-FITC)NH2))), the “Uptake Efficiency (%)” value in assay [1] was found to be 98%. The Kd in assay [2] (setting [4]) amounted to 0.4 mM; in assay [3] (setting [5]), 0.082 mM; in assay [3] (setting [6]), 0.39 mM.

For the compound `N=C(N)NCCC[C@@H]1NC(=O)[C@H](Cc2ccc3ccccc3c2)NC(=O)[C@@H](Cc2ccccc2)NC(=O)[C@H](Cc2ccccc2)NC(=O)[C@H](CCC(=O)N[C@@H](CCCCNC(=S)Nc2ccc3c(c2)C(=O)OC32c3ccc(O)cc3Oc3cc(O)ccc32)C(N)=O)NC(=O)[C@@H](CCCNC(=N)N)NC(=O)[C@H](CCCNC(=N)N)NC(=O)[C@@H](CCCNC(=N)N)NC1=O` [Peptide 290-12F, c(FfΦRrRrQ)] (cyclo(F[dF][2Nal]R[dR]R[dR]E(Lys(5-FITC)NH2))), in assay [1], the “Uptake Efficiency (%)” value came out at 681%. In addition, the values for the Kd in assay [2] (setting [4]), in assay [3] (setting [5]) and in assay [3] (setting [6]) were 0.8 mM, 0.004 mM and 0.026 mM, respectively.

For `N=C(N)NCCC[C@@H]1NC(=O)[C@H](Cc2ccc3ccccc3c2)NC(=O)[C@@H](Cc2ccccc2)NC(=O)[C@H](CCC(=O)N[C@@H](CCCCNC(=S)Nc2ccc3c(c2)C(=O)OC32c3ccc(O)cc3Oc3cc(O)ccc32)C(N)=O)NC(=O)[C@@H](CCCNC(=N)N)NC(=O)[C@H](CCCNC(=N)N)NC(=O)[C@@H](CCCNC(=N)N)NC1=O` [Peptide 290-9F, c(fΦRrRrQ)] (cyclo([dF][2Nal]R[dR]R[dR]E(Lys(5-FITC)NH2))), the “Uptake Efficiency (%)” value in assay [1] is given as 602%. Moreover, the Kd in assay [2] (pH 5.5, read-out: Membrane Binding KD (mM) SUV1 pH 5.5) amounted to 0.81 mM; in assay [2] (setting [4]) it was 1.2 mM; in assay [3] (setting [5]), 0.012 mM; in assay [3] (setting [6]), 0.033 mM.

Consider `N=C(N)NCCC[C@@H]1NC(=O)[C@H](CCCNC(=N)N)NC(=O)[C@H](CCCNC(=N)N)NC(=O)[C@H](CCCNC(=N)N)NC(=O)[C@H](Cc2ccc3ccccc3c2)NC(=O)[C@H](Cc2ccccc2)NC(=O)[C@H](CCC(=O)N[C@@H](CCCCNC(=S)Nc2ccc3c(c2)C(=O)OC32c3ccc(O)cc3Oc3cc(O)ccc32)C(N)=O)NC(=O)[C@H](CCCNC(=N)N)NC1=O` [Peptide 290-6F] (cyclo([2Nal]RRRRRE(Lys(5-FITC)NH2)F)), for which the “Uptake Efficiency (%)” value in assay [1] is reported as 184%. The Kd was found to be 2.2 mM in assay [2] (setting [4]), 0.019 mM in assay [3] (setting [5]) and 0.12 mM in assay [3] (setting [6]).

For the compound `N=C(N)NCCC[C@@H]1NC(=O)[C@H](Cc2ccc3ccccc3c2)NC(=O)[C@@H](Cc2ccccc2)NC(=O)[C@H](CCC(=O)N[C@@H](CCCCNC(=S)Nc2ccc3c(c2)C(=O)OC32c3ccc(O)cc3Oc3cc(O)ccc32)C(N)=O)NC(=O)[C@H](CCCNC(=N)N)NC(=O)[C@@H](CCCNC(=N)N)NC(=O)[C@H](CCCNC(=N)N)NC(=O)[C@@H](CCCNC(=N)N)NC1=O` [Peptide 290-11F, c(fΦRrRrRQ)] (cyclo([2Nal]R[dR]R[dR]RE(Lys(5-FITC)NH2)[dF])), the “Uptake Efficiency (%)” value in assay [1] was determined as 542%. Further, the Kd in assay [2] (setting [4]) was 2.7 mM; in assay [3] (setting [5]) it was 0.019 mM; in assay [3] (setting [6]) it was 0.092 mM.

As for `N=C(N)NCCC[C@@H]1NC(=O)[C@@H](CCCNC(=N)N)NC(=O)[C@H](CCCNC(=N)N)NC(=O)[C@@H](CCCNC(=N)N)NC(=O)[C@@H](Cc2ccc3ccccc3c2)NC(=O)[C@H](Cc2ccccc2)NC(=O)[C@@H](CCC(=O)N[C@@H](CCCCNC(=S)Nc2ccc3c(c2)C(=O)OC32c3ccc(O)cc3Oc3cc(O)ccc32)C(N)=O)NC1=O` [Peptide 290-18F, c(FϕrRrRq)] (cyclo(F[d2Nal][dR]R[dR]R[dE](Lys(5-FITC)NH2))), the “Uptake Efficiency (%)” value in assay [1] is 205%. For the same compound, the Kd in assay [2] (setting [4]) turned out to be 0.75 mM; in assay [3] (setting [5]), 0.022 mM; in assay [3] (setting [6]), 0.04 mM.

As to `N=C(N)NCCC[C@@H]1NC(=O)[C@H](Cc2ccccc2)NC(=O)[C@H](CCCNC(=N)N)NC(=O)[C@@H](CCCNC(=N)N)NC(=O)[C@H](CCC(=O)N[C@@H](CCCCNC(=S)Nc2ccc3c(c2)C(=O)OC32c3ccc(O)cc3Oc3cc(O)ccc32)C(N)=O)NC(=O)[C@H](CCCNC(=N)N)NC(=O)[C@H](Cc2ccc3ccccc3c2)NC1=O` [Peptide 290-10F, c(rRFRΦRQ)] (cyclo([dR]RFR[2Nal]RE(Lys(5-FITC)NH2))), the “Uptake Efficiency (%)” value in assay [1] came to 52%. For the same compound, the Kd was 1.2 mM in assay [2] (setting [4]), 0.17 mM in assay [3] (setting [5]) and 0.87 mM in assay [3] (setting [6]).

Turning to `N=C(N)NCCC[C@@H]1NC(=O)[C@H](CCC(=O)N[C@@H](CCCCNC(=S)Nc2ccc3c(c2)C(=O)OC32c3ccc(O)cc3Oc3cc(O)ccc32)C(N)=O)NC(=O)[C@H](CCCNC(=N)N)NC(=O)[C@H](CCCNC(=N)N)NC(=O)[C@H](Cc2ccccc2)NC(=O)[C@H](Cc2ccc3ccccc3c2)NC(=O)[C@H](CCCNC(=N)N)NC1=O` [Peptide 290-2F, c(RRΦFRRQ)] (cyclo(RR[2Nal]FRRE(Lys(5-FITC)NH2))), the “Uptake Efficiency (%)” value in assay [1] was 47%. In addition, the Kd in assay [2] (setting [4]) worked out at 1.95 mM; in assay [3] (setting [5]) it was 0.025 mM; in assay [3] (setting [6]) it was 0.69 mM.

In the case of `N=C(N)NCCC[C@@H]1NC(=O)[C@H](CCCNC(=N)N)NC(=O)[C@H](CCCNC(=N)N)NC(=O)[C@H](Cc2ccc3ccccc3c2)NC(=O)[C@H](Cc2ccccc2)NC(=O)[C@H](Cc2ccccc2)NC(=O)[C@H](CCC(=O)N[C@@H](CCCCNC(=S)Nc2ccc3c(c2)C(=O)OC32c3ccc(O)cc3Oc3cc(O)ccc32)C(N)=O)NC(=O)[C@H](CCCNC(=N)N)NC1=O` [Peptide 290-7F] (cyclo(FF[2Nal]RRRRE(Lys(5-FITC)NH2))), the “Uptake Efficiency (%)” value in assay [1] came out at 134%. The Kd in assay [2] (setting [4]) is 1.65 mM; in assay [3] (setting [5]) it was 0.007 mM; in assay [3] (setting [6]), 0.11 mM.

Take `N=C(N)NCCC[C@@H]1NC(=O)[C@H](CCCNC(=N)N)NC(=O)[C@H](CCCNC(=N)N)NC(=O)[C@H](Cc2ccc3ccccc3c2)NC(=O)[C@H](Cc2ccccc2)NC(=O)[C@H](CCC(=O)N[C@@H](CCCCNC(=S)Nc2ccc3c(c2)C(=O)OC32c3ccc(O)cc3Oc3cc(O)ccc32)C(N)=O)NC1=O` [Peptide 290-5F, c(FΦRRRQ)] (cyclo(F[2Nal]RRRE(Lys(5-FITC)NH2))): in assay [1], the “Uptake Efficiency (%)” value was 97%. Also, the Kd in assay [2] (setting [4]) was found to be 10.1 mM; in assay [3] (setting [5]), 0.066 mM; in assay [3] (setting [6]), 2.4 mM.

(Values after US10815276B2, “Cell penetrating peptides and methods of making and using thereof” (Entrada Therapeutics, Inc., priority 2014, dated 2020).)
